According to the CheMixHub viscosity set:

Assay: xn = mol fraction of the nth substance listed

OCCOCCOCCOCCOCCO + O
viscosity [mPa·s], 100 kPa
Settings | 293.15 K | 298.15 K | 303.15 K | 308.15 K | 313.15 K | 318.15 K | 323.15 K
x2 = 0.023 | 70.88 | 54.12 | 42.28 | 33.63 | 27.22 | 22.34 | 18.57
x2 = 0.081 | 72.83 | 55.72 | 43.21 | 34.21 | 27.55 | 22.56 | 18.68
x2 = 0.144 | 71.38 | 54.33 | 42.28 | 33.53 | 27.01 | 22.11 | 18.34
x2 = 0.166 | 70.74 | 53.66 | 41.76 | 33.1 | 26.67 | 21.83 | 18.08

C=CCC[n+]1ccn(C)c1.[Br-] + O
viscosity [mPa·s], 101.33 kPa
Settings | x1 = 0.0009034 | x1 = 0.00189 | x1 = 0.003585 | x1 = 0.005487 | x1 = 0.007167 | x1 = 0.008848
293.15 K | 1.018 | 1.037 | 1.071 | 1.102 | 1.136 | 1.164
298.15 K | 0.904 | 0.92 | 0.95 | 0.977 | 1.007 | 1.031
303.15 K | 0.809 | 0.824 | 0.85 | 0.874 | 0.901 | 0.922
308.15 K | 0.73 | 0.742 | 0.765 | 0.788 | 0.811 | 0.83
313.15 K | 0.662 | 0.673 | 0.694 | 0.714 | 0.735 | 0.753

CC(C)CCC[C@@H](C)[C@H]1CC[C@H]2[C@@H]3CC=C4C[C@@H](O)CC[C@]4(C)[C@H]3CC[C@]12C + ClC(Cl)Cl
viscosity [mPa·s], 101.33 kPa
Settings | x1 = 0.00286 | x1 = 0.0048 | x1 = 0.0081 | x1 = 0.0138 | x1 = 0.01748 | x1 = 0.0223 | x1 = 0.02849 | x1 = 0.03663
298 K | 0.557 | 0.57 | 0.594 | 0.638 | 0.667 | 0.709 | 0.766 | 0.848
303 K | 0.534 | 0.547 | 0.568 | 0.608 | 0.635 | 0.673 | 0.724 | 0.798
313 K | 0.494 | 0.504 | 0.522 | 0.555 | 0.578 | 0.609 | 0.652 | 0.712
323 K | 0.459 | 0.468 | 0.483 | 0.511 | 0.529 | 0.555 | 0.589 | 0.637

CCC#N + CC(=O)N(C)C
303.15 K, 101.33 kPa
Settings | viscosity [mPa·s]
x1 = 0.0953 | 0.8264
x1 = 0.2 | 0.7648
x1 = 0.3021 | 0.7092
x1 = 0.3926 | 0.6613
x1 = 0.4985 | 0.6082
x1 = 0.595 | 0.5621
x1 = 0.699 | 0.5131
x1 = 0.795 | 0.4684
x1 = 0.9013 | 0.425

CCC#N + CS(C)=O
viscosity [mPa·s]
Settings | 298.15 K | 303.15 K | 308.15 K | 313.15 K | 318.15 K | 323.15 K
101 kPa, x2 = 0.1078 | 0.49 | 0.47 | 0.44 | 0.43 | 0.4 | 0.35
101 kPa, x2 = 0.2092 | 0.56 | 0.54 | 0.51 | 0.48 | 0.46 | 0.4
101 kPa, x2 = 0.3026 | 0.63 | 0.6 | 0.57 | 0.55 | 0.52 | 0.45
101 kPa, x2 = 0.3983 | 0.72 | 0.69 | 0.65 | 0.62 | 0.6 | 0.51
101 kPa, x2 = 0.4995 | 0.85 | 0.81 | 0.75 | 0.71 | 0.68 | 0.58
101 kPa, x2 = 0.6026 | 1.01 | 0.96 | 0.89 | 0.84 | 0.79 | 0.68
101 kPa, x2 = 0.7077 | 1.2 | 1.12 | 1.04 | 0.98 | 0.92 | 0.78
101 kPa, x2 = 0.7966 | 1.39 | 1.29 | 1.2 | 1.1 | 1.05 | 0.89
101 kPa, x2 = 0.9014 | 1.67 | 1.54 | 1.4 | 1.31 | 1.23 | 1.03
101.33 kPa, x1 = 0.1009 | – | 1.547 | – | – | – | –
101.33 kPa, x1 = 0.202 | – | 1.322 | – | – | – | –
101.33 kPa, x1 = 0.3031 | – | 1.12 | – | – | – | –
101.33 kPa, x1 = 0.4043 | – | 0.9436 | – | – | – | –
101.33 kPa, x1 = 0.499 | – | 0.8012 | – | – | – | –
101.33 kPa, x1 = 0.6002 | – | 0.6745 | – | – | – | –
101.33 kPa, x1 = 0.7153 | – | 0.5619 | – | – | – | –
101.33 kPa, x1 = 0.798 | – | 0.4937 | – | – | – | –
101.33 kPa, x1 = 0.8994 | – | 0.4328 | – | – | – | –

CCCCCCCCCCO + CCCCCCO
viscosity [mPa·s], 101.8 kPa
Settings | x2 = 0.1493 | x2 = 0.3989 | x2 = 0.6071 | x2 = 0.7831 | x2 = 0.9346
298.15 K | 10.38 | 8.464 | 7.01 | 5.822 | 4.905
308.15 K | 7.307 | 6.019 | 5.068 | 4.271 | 3.643
318.15 K | 5.25 | 4.393 | 3.745 | 3.191 | 2.75

Cc1ccccc1C + ClC(Cl)Cl
298.15 K, 101 kPa
Settings | viscosity [mPa·s]
x2 = 0.262 | 0.739
x2 = 0.3694 | 0.725
x2 = 0.5222 | 0.6941
x2 = 0.5776 | 0.682
x2 = 0.6279 | 0.6691
x2 = 0.6624 | 0.6592
x2 = 0.7082 | 0.6482
x2 = 0.7562 | 0.6348
x2 = 0.7944 | 0.6224

CCOC(=O)OCC + CS(C)=O
308.15 K, 101 kPa
Settings | viscosity [mPa·s]
x2 = 0.0902 | 0.7
x2 = 0.1358 | 0.719
x2 = 0.2655 | 0.789
x2 = 0.3678 | 0.836
x2 = 0.468 | 0.928
x2 = 0.5579 | 1.006
x2 = 0.6013 | 1.047
x2 = 0.6456 | 1.093
x2 = 0.7167 | 1.172
x2 = 0.7783 | 1.249
x2 = 0.8439 | 1.344
x2 = 0.9239 | 1.487

CCC#N + CN(C)C=O
303.15 K, 101.33 kPa
Settings | viscosity [mPa·s]
x1 = 0.1013 | 0.6977
x1 = 0.1952 | 0.6428
x1 = 0.3003 | 0.5983
x1 = 0.4007 | 0.5648
x1 = 0.4949 | 0.5385
x1 = 0.5976 | 0.5113
x1 = 0.6964 | 0.4839
x1 = 0.7945 | 0.4533
x1 = 0.9 | 0.4186

Cc1ccccc1C + C1COCCO1
308.15 K, 101 kPa
Settings | viscosity [mPa·s]
x2 = 0.1 | 0.676
x2 = 0.2 | 0.699
x2 = 0.3 | 0.723
x2 = 0.5 | 0.774
x2 = 0.6 | 0.806
x2 = 0.7 | 0.841
x2 = 0.8 | 0.879
x2 = 0.9 | 0.922

CCCCCC(=O)[O-].[NH3+]CCO + O
viscosity [mPa·s], 101 kPa
Settings | x1 = 0.0053 | x1 = 0.0114 | x1 = 0.0176 | x2 = 0.9074 | x2 = 0.9364 | x2 = 0.9583 | x2 = 0.9753
293.15 K | 1.44 | 1.692 | 1.82 | 12.85 | 6.672 | 3.858 | 2.546
298.15 K | 1.26 | 1.5 | 1.68 | 10.73 | 5.73 | 3.306 | 2.04
303.15 K | 1.11 | 1.35 | 1.494 | 9.048 | 4.92 | 2.868 | 1.806

CCCCCCCCCCO + CO
viscosity [mPa·s], 101 kPa
Settings | 298.15 K | 308.15 K | 318.15 K
x2 = 0.05 | 10.38 | 7.137 | 5.136
x2 = 0.1 | 9.75 | 6.75 | 4.899
x2 = 0.15 | 9.096 | 6.352 | 4.649
x2 = 0.2 | 8.429 | 5.944 | 4.39
x2 = 0.25 | 7.757 | 5.531 | 4.121
x2 = 0.3 | 7.086 | 5.115 | 3.847
x2 = 0.35 | 6.425 | 4.699 | 3.567
x2 = 0.4 | 5.779 | 4.287 | 3.285
x2 = 0.45 | 5.154 | 3.88 | 3.003
x2 = 0.5 | 4.554 | 3.481 | 2.721
x2 = 0.55 | 3.984 | 3.093 | 2.443
x2 = 0.6 | 3.448 | 2.719 | 2.171
x2 = 0.65 | 2.947 | 2.36 | 1.905
x2 = 0.7 | 2.485 | 2.02 | 1.649
x2 = 0.75 | 2.063 | 1.7 | 1.405
x2 = 0.8 | 1.681 | 1.403 | 1.174
x2 = 0.85 | 1.34 | 1.131 | 0.958
x2 = 0.9 | 1.038 | 0.886 | 0.76
x2 = 0.95 | 0.776 | 0.669 | 0.582

CCOC(=O)OCC + CCCCCCCCCCCC
298.15 K, 101.3 kPa
Settings | viscosity [mPa·s]
x1 = 0.0152 | 1.301
x1 = 0.0779 | 1.228
x1 = 0.1327 | 1.18
x1 = 0.1841 | 1.133
x1 = 0.2993 | 1.047
x1 = 0.4701 | 0.942
x1 = 0.6163 | 0.86
x1 = 0.7539 | 0.793
x1 = 0.9071 | 0.745
x2 = 0.014 | 0.741

Cc1ccccc1C + CC1COC(=O)O1
303.15 K, 101.3 kPa
Settings | viscosity [mPa·s]
x2 = 0.1383 | 0.8178
x2 = 0.2653 | 0.9124
x2 = 0.3824 | 1.011
x2 = 0.4906 | 1.12
x2 = 0.5909 | 1.244
x2 = 0.6842 | 1.384
x2 = 0.7712 | 1.547
x2 = 0.8525 | 1.733
x2 = 0.9286 | 1.937

c1cc[nH]c1 + c1ccccc1
viscosity [mPa·s], 101 kPa
Settings | x1 = 0.05439 | x1 = 0.06772 | x1 = 0.1099
303.15 K | 0.576 | 0.579 | 0.59
323.15 K | 0.445 | 0.452 | 0.459

CC(C)[C@@H]1CC[C@@H](C)C[C@H]1O + CCCCCCCCO
Settings | viscosity [mPa·s]
298.15 K, 101.33 kPa, x1 = 0.5 | 13.1
